Reference: patent US6989396B2, “Tropane alkaloid multidrug resistance inhibitors from Erythroxylum pervillei and use of the same” (The Board of Trustees of the University of Illinois, priority 2001, dated 2006)
≈ marks a conversion by molar mass, not a printed value. Where “and” joins values, the source holds several entries; their conditions need not be identical. Identical values can stand only once. Like-named read-outs stand apart in the source and are kept apart here.

What was measured:
KB-V1, drug resistant KB = assay: In vitro cytotoxicity, human tumor panel: KB-V1 with or without vinblastine; format: cell-based
Protocol: (§1) Cytotoxicity assay. Compounds 1–9 were evaluated for cytotoxic activity against a panel of human cancer cell lines, including KB-V1 in the presence and absence of VLB, according to an established protocol (68).

UO-31, renal = assay: In vitro multidrug resistance modulation (DINIB synergy): UO-31; format: cell-based, human; conditions: increase of cytotoxicity of DINIB 1 × 10^−4 M; modulator μg/mL: verapamil 12.5, cyclosporin A 6.3, pervilleine B 12.5, C 3.1, D 50.0, F 25.0; <25 insignificant, >100 strong synergy
Source text: (§2) Alkaloids 5–7 and 9 were further evaluated for their efficacy as potential modulators of P-glycoprotein. This assay assessed the ability of these test compounds to increase the cytotoxicity of an agent of the MDR phenotype {4,9-dihydro-3-iso-butyl-2-methyl-1-(p-nitrophenacyl)-4,9-dioxo-1H-naphth[2-3-d]imidazolium bromide (DINIB)}, compared with an agent not of the MDR phenotype (5-flurouracil), used as a negative control (73, 74).
(§3) In vitro multidrug resistance assay.

Lu1, lung cancer = assay: In vitro cytotoxicity, human tumor panel: Lu1; format: cell-based; conditions: Homo sapiens, read-out: ED50 Lu1
Protocol: as §1

Col2, colon cancer = assay: In vitro cytotoxicity, human tumor panel: Col2; format: cell-based; conditions: Homo sapiens, read-out: ED50 Col2
Protocol: as §1

HCT-15, colon = assay: In vitro multidrug resistance modulation (DINIB synergy): HCT-15; format: cell-based, human; conditions: increase of cytotoxicity of DINIB 1 × 10^−4 M; modulator μg/mL: verapamil 12.5, cyclosporin A 6.3, pervilleine B 12.5, C 3.1, D 50.0, F 25.0; <25 insignificant, >100 strong synergy
Source text: as §2, §3

[1] = tested on: KB, oral epidermoid carcinoma; assay: In vitro cytotoxicity, human tumor panel: KB; format: cell-based; conditions: Homo sapiens, read-out: ED50 KB
Protocol: as §1

CAKI-1, renal = assay: In vitro multidrug resistance modulation (DINIB synergy): CAKI-1; format: cell-based, human; conditions: increase of cytotoxicity of DINIB 1 × 10^−4 M; modulator μg/mL: verapamil 12.5, cyclosporin A 6.3, pervilleine B 12.5, C 3.1, D 50.0, F 25.0; <25 insignificant, >100 strong synergy
Source text: as §2, §3

LOX IMVI, melanoma = assay: In vitro multidrug resistance modulation (DINIB synergy): LOX IMVI; format: cell-based, human; conditions: increase of cytotoxicity of DINIB 1 × 10^−4 M; modulator μg/mL: verapamil 12.5, cyclosporin A 6.3, pervilleine B 12.5, C 3.1, D 50.0, F 25.0; <25 insignificant, >100 strong synergy
Source text: as §2, §3

BC1, breast cancer = assay: In vitro cytotoxicity, human tumor panel: BC1; format: cell-based; conditions: Homo sapiens, read-out: ED50 BCI
Protocol: as §1

[2] = tested on: LNCaP, hormone-dependent prostate cancer; assay: In vitro cytotoxicity, human tumor panel: LNCaP; format: cell-based; conditions: Homo sapiens, LNCaP, read-out: ED50 LNCaP
Protocol: as §1

[3] = tested on: SW626, human ovarian adenocarcinoma; assay: In vitro cytotoxicity, human tumor panel: SW626; format: cell-based; conditions: SW626, read-out: ED50 SW626
Protocol: as §1

KB-8-5 cells [4] = assay: Reversal of MDR, cell survival assay: KB-8-5 with or without colchicine; format: cell-based, human; conditions: Homo sapiens
Protocol: (§4) Cytotoxic potential. The cytotoxic potential of test substances with KB-3, KB-V1 and KB-8-5 cells was determined as described previously (24). Briefly, various concentrations of test compounds (dissolved in 10 μl of 10% DMSO) were transferred to 96-well plates, and 190 μl aliquots of cell suspensions (5×10^4 cells/ml) were added to each well. The plates then were incubated for 72 hours at 37° C. (100% humidity with a 5% CO2 atmosphere in air), and 100 μl of cold 20% aqueous trichloroacetic acid were added to the growth medium in each well to fix the cells. The cultures were incubated at 4° C. for 30 minutes, washed, air-dried, stained with sulforhodamine B solution, and washed with 1% acetic acid. […] In each case, a zero-day control was performed by adding an equivalent number of cells to several wells and incubating at 37° C. for 30 minutes, and processing as described above. Optical density values obtained with the zero-day control were subtracted, and cell survival, relative to control (solvent-treated) cultures, was calculated. The cytotoxic potential of the compounds with CEM and CEM/VLB100 cells was determined as described by Beck et al. (30). Cells were grown in 24-well plates at a density of 5–6×10^5 cells/ml. At 48 hours, the cell number was determined using a Coulter Counter, with a channelizer to distinguish cells from debris.

CEM/VLB100 cells = assay: MDR reversal in drug-resistant human leukemia CEM/VLB100 cells; format: cell-based; conditions: Homo sapiens
Protocol: as §4

KB-3 cells = assay: Growth inhibitory potential (sulforhodamine B cell survival assay): KB-3; format: cell-based; conditions: Homo sapiens, KB3, 72 h, read-out: IC50 KB-3
Protocol: (§5) One part of a natural product drug discovery program involves monitoring the potential of plant extracts to reverse multiple drug resistance. […] To investigate the potential of plant extracts or compounds to reverse multidrug-resistance, KB-V1 cells are treated with different concentrations of plant extracts or compounds in the presence (1 μg/ml) or absence of vinblastine.
Cytotoxic potential. The cytotoxic potential of test substances with KB-3, KB-V1 and KB-8-5 cells was determined as described previously (24). Briefly, various concentrations of test compounds (dissolved in 10 μl of 10% DMSO) were transferred to 96-well plates, and 190 μl aliquots of cell suspensions (5×10^4 cells/ml) were added to each well. The plates then were incubated for 72 hours at 37° C. (100% humidity with a 5% CO2 atmosphere in air), and 100 μl of cold 20% aqueous trichloroacetic acid were added to the growth medium in each well to fix the cells. The cultures were incubated at 4° C. for 30 minutes, washed, air-dried, stained with sulforhodamine B solution, and washed with 1% acetic acid. Finally, 200 μl of 10 mM Tris base were added to each well and the optical densities were determined at 515 nm utilizing an ELISA plate reader. In each case, a zero-day control was performed by adding an equivalent number of cells to several wells and incubating at 37° C. for 30 minutes, and processing as described above. Optical density values obtained with the zero-day control were subtracted, and cell survival, relative to control (solvent-treated) cultures, was calculated. The cytotoxic potential of the compounds with CEM and CEM/VLB100 cells was determined as described by Beck et al. (30). Cells were grown in 24-well plates at a density of 5–6×10^5 cells/ml. At 48 hours, the cell number was determined using a Coulter Counter, with a channelizer to distinguish cells from debris.

KB-V1 cells [5] = assay: Reversal of MDR, cell survival assay: KB-V1 with or without vinblastine; format: cell-based, human
Protocol: as §5, §4

KB-8-5 cells [6] = assay: In vivo hollow fiber test: KB-8-5; design: species or system NCr nu/nu mice
Protocol: (§6) In vivo hollow fiber test. […] Confluent monolayers of KB-3, KB-V1 or KB-8-5 cells were harvested, collected by centrifugation and resuspended in conditioned medium at a concentration of 7.5×10^5 cells/ml.
(§7) Test compounds were administrated once daily by intraperitoneal injection from day 3–6 after implantation. Body weights were measure daily.
(§8) After incubating at 37° C. for 4 hours, the culture medium was aspirated and the samples were washed twice with normal saline containing 2.5% protamine sulfate solution by overnight incubation at 4° C. […] The formazan was extracted from each sample with DMSO (250 μl/well) for 4 hours at room temperature on a rotation platform.

KB-V1 cells [7] = assay: In vivo hollow fiber test: KB-V1; design: species or system NCr nu/nu mice
Protocol: as §6, §7, §8

[8] = summation of single-agent inhibitions
[9] = vinblastine 100 μg/kg + reversing agent 0.136 mmol/kg

COc1cc(C=CC(=O)O[C@H]2C[C@@H]3C[C@H](OC(=O)Cc4ccccc4)C[C@H]2N3C)cc(OC)c1OC [Compound 9, 3α-phenylacetoxy-6β-(3,4,5-trimethoxycinnamoyloxy)-tropane]
IC50 (KB-V1, drug resistant KB; Homo sapiens, KB-V1, drug-resistant KB assessed in the absence of vinblastine, read-out: ED50 KB-V1−): > 20 µg/mL
ED50 KB-V1+ (KB-V1, drug resistant KB; drug resistant KB assessed in presence of vinblastine (1 μg/mL)): 0.2 µg/mL
synergy value at a 95% confidence level, UO-31 (UO-31, renal): 364.4
IC50 (Lu1, lung cancer): > 20 µg/mL
IC50 (Col2, colon cancer): 4.9 µg/mL (≈ 9.89 µM)
synergy value at a 95% confidence level, HCT-15 (HCT-15, colon): 714.7
IC50 [1]: > 20 µg/mL
melting point: 59 to 61 °C
synergy value at a 95% confidence level, CAKI-1 (CAKI-1, renal): 342.1
synergy value at a 95% confidence level, LOX IMVI (LOX IMVI, melanoma): 59.2
IC50 (BC1, breast cancer): > 20 µg/mL
IC50 [2]: > 20 µg/mL
IC50 [3]: > 20 µg/mL

COc1ccc(CCN(C)CCCC(C#N)(c2ccc(OC)c(OC)c2)C(C)C)cc1OC (stereo not drawn) [verapamil, reference compound]
IC50 (KB-8-5 cells [4]): > 44 µM
IC50 (CEM/VLB100 cells; CEM/VLB100, 48 h, read-out: IC50 Modulator only): > 15 µM
IC50 (CEM/VLB100 cells; CEM/VLB100, read-out: IC50 (Modulator + Daunorubicin)): 0.5 µM
IC50 (CEM/VLB100 cells; CEM/VLB100, read-out: IC50 (Modulator + Vinblastine)): 0.025 µM
IC50 (KB-3 cells): 37 µM
IC50 (KB-V1 cells [5]; Homo sapiens, KB-V1, 72 h, read-out: IC50 KB-V1 (+), presence of vinblastine (1 μg/ml), 72 hours): 0.79 µM
IC50 (KB-V1 cells [5]; Homo sapiens, KB-V1, 72 h, read-out: IC50 KB-V1 (−), absence of vinblastine, 72 hours): > 44 µM
IC50 (KB-V1 cells [5]; read-out: IC50 KB-V1 (−), absence of vinblastine, 72 hours): 44 µM
Calculated inhibition (vinblastine + reversing agent as single agents), KB-8-5, i.p. site (KB-8-5 cells [6]; [8]): 5.9%
Calculated inhibition (vinblastine + reversing agent as single agents), KB-8-5, s.c. site (KB-8-5 cells [6]; [8]): 3.7%
Observed inhibition from coadministration with vinblastine, KB-8-5, i.p. site (KB-8-5 cells [6]; [9]): 52 (P < 0.0001) %
Observed inhibition from coadministration with vinblastine, KB-8-5, s.c. site (KB-8-5 cells [6]; [9]): 11.7 (P = 0.06) %
Growth inhibition, single agent, KB-8-5, s.c. site (KB-8-5 cells [6]; vinblastine 100 μg/kg, reversing agents 0.136 mmol/kg): 1.4%
Growth inhibition, single agent, KB-8-5, i.p. site (KB-8-5 cells [6]; vinblastine 100 μg/kg, reversing agents 0.136 mmol/kg, i.p. injection once daily days 3–6): 4.7%
inhibition of cell growth when used in combination with vinblastine (KB-V1 cells [7]; KB-V1 or KB-8-5 cells in hollow fibers implanted into NCr nu/nu mice): less effective
Calculated inhibition (vinblastine + reversing agent as single agents), KB-V1, i.p. site (KB-V1 cells [7]; [8]): 7.4% and 6.2%
Calculated inhibition (vinblastine + reversing agent as single agents), KB-V1, s.c. site (KB-V1 cells [7]; [8]): 3.8% and 10.8%
Observed inhibition from coadministration with vinblastine, KB-V1, s.c. site (KB-V1 cells [7]; vinblastine 250 μg/kg + reversing agent 0.136 mmol/kg): 7.8 (P = 0.73) % and 13.6 (P = 0.098) %
Observed inhibition from coadministration with vinblastine, KB-V1, i.p. site (KB-V1 cells [7]; vinblastine 250 μg/kg + reversing agent 0.136 mmol/kg, i.p. injection once daily days 3–6): 60.3 (P < 0.0001) % and 56.6 (P < 0.0001) %

cyclosporin A [reference compound]
synergy value at a 95% confidence level, UO-31 (UO-31, renal): 642.1
synergy value at a 95% confidence level, HCT-15 (HCT-15, colon): 719.1
synergy value at a 95% confidence level, CAKI-1 (CAKI-1, renal): 273.3
synergy value at a 95% confidence level, LOX IMVI (LOX IMVI, melanoma): 72.9
